Experimental data from patent publication US7618774B2, “Materials and methods for identifying genes and/or agents that alter replicative lifespan” (University of Rochester, priority 2003, dated 2009).
Entries after “also recorded” stand apart in the source; their conditions may differ.

Experiments:
yeast = settings: literature reports; cited from earlier work
K6001 cells = experiment: DEAD assay for replicative lifespan; type: cell-based, S. cerevisiae
Text: One yeast strain that can be used in the assays of the present invention is S. cerevisiae strain K6001, which carries two distinct non-native genes (i.e., not contained within a single cassette). This strain was originally developed for the study of mating-type switching (Bobola et al. “Asymmetric Accumulation of Ash1p in Postanaphase Nuclei Depends on a Myosin and Restricts Yeast Mating-Type Switching to Mother Cells,” Cell 84:699-709 (1996), which is hereby incorporated by reference in its entirety). K6001 cells contain two independent copies of CDC6 expressed from either the repressible GAL1or mother-cell specific HO promoters. Cdc6p is an essential protein required for DNA replication. Transcription from the HO promoter in daughter cells is prevented by Ash1p, which is expressed exclusively in daughter cells (Sil, et al., “Identification of Asymmetrically Localized Determinant, Ash1p, Required for Lineage-Specific Transcription of the Yeast HO Gene,” Cell 84:711-22 (1996), which is hereby incorporated by reference in its entirety). When K6001 cells are cultured on galactose, GAL1::CDC6 is expressed in both mother and daughter cells, sustaining the replication of both. However, when the GAL1::CDC6 gene is repressed by glucose, only the mother-specific expression of HO::CDC6 remains to support growth. Given the tight regulation of the GAL1promoter, DNA replication fails and daughter cells arrest after one, or at most a few ectopic cytokineses. As a result, K6001 cultures grow approximately linearly in glucose (daughter cells accumulate and contribute to the optical density of the culture) until the mother cells reach their replicative capacity and cease producing daughter cells. Since Cdc6 is naturally unstable, and the GAL1 promoter is efficiently shut off in glucose, the transition from log growth to linear growth is relatively tight and rapid. […]
The DEAD assay was used to assess the effect of deleting SGS1 on replicative lifespan. […] After 48 hrs at 30° C. the number of daughter cells in each microcolony was counted by microdissection and plotted as a survival curve. […]

mammalian cells = settings: literature reports; cited from earlier work
Sir2 = Sir2 (Saccharomyces cerevisiae, UniProt P06700); settings: in vitro; cited from earlier work
Chain of Sir2 (P06700 whole entry): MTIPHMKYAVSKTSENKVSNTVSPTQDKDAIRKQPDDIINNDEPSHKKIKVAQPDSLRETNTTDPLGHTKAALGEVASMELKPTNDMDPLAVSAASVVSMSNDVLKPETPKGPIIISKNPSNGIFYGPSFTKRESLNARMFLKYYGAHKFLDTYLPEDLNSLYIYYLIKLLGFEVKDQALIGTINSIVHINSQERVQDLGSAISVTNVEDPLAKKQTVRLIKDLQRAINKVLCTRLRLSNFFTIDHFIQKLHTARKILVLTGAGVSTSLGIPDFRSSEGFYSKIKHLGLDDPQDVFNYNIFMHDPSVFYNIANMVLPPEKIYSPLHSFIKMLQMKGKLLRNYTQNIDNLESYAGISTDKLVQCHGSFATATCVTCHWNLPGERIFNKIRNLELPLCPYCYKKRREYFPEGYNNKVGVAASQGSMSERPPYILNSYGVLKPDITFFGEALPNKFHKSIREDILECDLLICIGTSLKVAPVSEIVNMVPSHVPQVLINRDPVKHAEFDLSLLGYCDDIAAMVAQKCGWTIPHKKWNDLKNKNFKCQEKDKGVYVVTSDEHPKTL

C[n+]1ccc(-c2cc[n+](C)cc2)cc1 [paraquat]
replicative lifespan of yeast (yeast): reduce replicative lifespan in yeast
lifespan (replicative) (K6001 cells; K6001 cells cultured in 5 μM paraquat versus lower concentration, FIG. 4): apparently shorter
mean lifespan (replicative) (K6001 cells; K6001 cells, paraquat between 0.1 μM to 5.0 μM, FIG. 4): decreased in a dose-dependent fashion
apoptosis (mammalian cells): induce apoptosis in mammalian cells

Oc1ccc(C=Cc2cc(O)cc(O)c2)cc1 [resveratrol]
replicative lifespan of yeast (yeast): extends the replicative lifespan of yeast
mean lifespan (replicative) (K6001 cells; K6001 cells cultured in presence or absence of 10 μM resveratrol, FIG. 3): significantly extended the mean lifespan; also recorded: longer mean lifespan
Sir2 activation (Sir2): actives Sir2 in vitro
